The values that follow come from patent US11358969B2, “Indole AHR inhibitors and uses thereof” (Ikena Oncology, Inc., priority 2017, dated 2022).

The target of series [1] is T1, AHR (UniProt P35869).
T1 construct: IC50
T1 sequence (P35869 1-848): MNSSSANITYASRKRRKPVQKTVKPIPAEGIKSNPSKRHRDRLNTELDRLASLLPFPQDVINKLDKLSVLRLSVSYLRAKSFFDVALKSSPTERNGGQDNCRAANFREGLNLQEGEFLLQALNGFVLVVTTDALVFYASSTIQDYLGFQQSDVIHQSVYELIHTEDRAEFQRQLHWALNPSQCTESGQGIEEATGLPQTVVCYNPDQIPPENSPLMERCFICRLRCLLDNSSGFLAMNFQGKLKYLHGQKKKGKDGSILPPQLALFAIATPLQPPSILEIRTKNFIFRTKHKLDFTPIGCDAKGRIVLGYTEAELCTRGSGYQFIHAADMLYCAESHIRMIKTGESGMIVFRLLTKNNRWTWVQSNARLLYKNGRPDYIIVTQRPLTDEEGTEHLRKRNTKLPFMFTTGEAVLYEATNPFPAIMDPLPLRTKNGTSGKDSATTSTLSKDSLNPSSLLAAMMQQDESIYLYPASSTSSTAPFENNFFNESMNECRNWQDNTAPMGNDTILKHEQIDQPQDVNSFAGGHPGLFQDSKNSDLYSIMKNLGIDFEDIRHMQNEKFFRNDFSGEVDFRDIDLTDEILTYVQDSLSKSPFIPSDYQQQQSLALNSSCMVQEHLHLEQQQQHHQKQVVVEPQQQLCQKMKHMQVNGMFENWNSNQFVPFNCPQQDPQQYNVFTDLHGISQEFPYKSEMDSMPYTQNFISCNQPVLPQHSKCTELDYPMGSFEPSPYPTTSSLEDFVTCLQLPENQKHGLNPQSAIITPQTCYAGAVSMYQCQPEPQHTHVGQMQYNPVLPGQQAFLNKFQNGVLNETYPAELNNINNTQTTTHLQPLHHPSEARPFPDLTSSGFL
The experiment in a line: DRE-Luciferase Reporter Assay (Alternate Method) (Example 1B). As to conditions: cell line and AHR activating ligand not specified. It is filed as cell-based, murine or human.

The test system of series [2] is CD3/CD28 activated human T cells. The experiment in a line: T-Cell Study with I-70 (Example 1F). As to conditions: human T cells activated with CD3/CD28 tetramer, 24 hours. It is filed as cell-based. On the procedure: Human T cells were isolated by CD3 negative selection after isolation of PBMCs from blood of human donors via ficoll density gradient centrifugation. One million T cells were activated with 25 uL of CD3/CD28 tetramer (Stemcell) in the presence or absence of I-70 for 24 hours, after which media was removed and stored at −80 C for later cytokine analysis. Cells were then washed 2× with PBS, before isolating RNA according to the manufacturer's instructions for the RNAeasy mini kit (Qiagen).
RNA was converted to cDNA using VILO-IV RT mastermix (Thermofisher), and q-RT-PCR was performed to determine levels of IL-22 (Hs01574154_m1), Cyp1a1 (Hs01054797_g1), and GAPDH (Hs00266705_g1). Data was analyzed using the ddCT method whereby each sample is first normalized to GAPDH housekeeping gene before being normalized to control treatment.
Cytokine levels were determined utilizing the mesoscale discovery (MSD) platform (K15067L-2) and MSD analysis software according to the manufacturer's instructions. IL-22 protein levels are decreased and pro-inflammatory IL-2 protein levels are increased by treatment with I-70, as shown in FIG. 2.

The test system of series [3] is CT26 murine colon carcinoma. The series is described as follows: Efficacy study in the mouse colorectal cancer model CT26 (Example 1G). It is filed as in vivo. To be noted: CT26 in Balb/c mice, FIG. 3. The procedure: CT26 is a murine colon carcinoma cell line obtained from ATCC. CT26 cells were cultured in RPMI supplemented with 10% FBS. 5×10^5 CT26 cells in 100 μl PBS were implanted subcutaneously in 6-8 week old female, Balb/c mice. Dosing for the efficacy study starts 4 days post implant: AHR antagonist was dosed orally, every day (QD) at or 10 mg/kg for 3 weeks. anti-PD-1 (BioXcell RMP1-14) was twice a week, intraperitoneally (IP) at 10 mg/kg for five total doses. Tumors were monitored by caliper measurement every 2-3 days and body weight measured three times per week.

Series [4] has as its system B16-IDO murine melanoma. The experiment in a line: Efficacy study in the mouse melanoma model B16-IDO (Example 1H). In kind it is in vivo. To be noted: B16-IDO in C57BL/6 mice, FIG. 4. The procedure:
B16-IDO is a murine melanoma carcinoma cell line that has been engineered to overexpress IDO1 (Holmgaard, 2015 Cell Reports). B16-IDO cells were cultured in DMEM supplemented with 10% FBS. 2×10^5 B16-IDO cells in 50 μl PBS were implanted intradermally in 6-8 week old female, C57BL/6 mice. Dosing for the efficacy study starts 7 days post implant: AHR antagonist I-70 was dosed orally, every day (QD) at or 10 mg/kg for 2 weeks. Anti-PD-1 (BioXcell RMP1-14) was administered every 3rd day, intraperitoneally (IP) at 250 μg/mouse for five total doses. Tumors were monitored by caliper measurement every 2-3 days and body weight measured three times per week.

Broadly, the IC50 is the point on the concentration scale where inhibition reaches its midpoint. Read a high IC50 as a need for much substance. As for `CC(C)c1cnn2c(N[C@@H]3CCc4[nH]c5ccccc5c4C3)nc(-c3cncc(F)c3)nc12` [I-40, (3R)—N-[2-(5-Fluoro-3-pyridyl)-8-isopropyl-pyrazolo[1,5-a][1,3,5]triazin-4-yl]-2,3,4,9-tetrahydro-1H-carbazol-3-amine], in series [1], the IC50 was < 500 nM.
Turning to `Cc1cnn2c(NCCc3c[nH]c4ccccc34)cc(-c3cncc(F)c3)nc12` [I-70, 5-(5-Fluoro-3-pyridyl)-N-[2-(1H-indol-3-yl)ethyl]-3-methyl-pyrazolo[1,5-a]pyrimidin-7-amine], the IL-22 protein levels result in series [2] (MSD platform, FIG. 2) was “decreased”. Further, the “pro-inflammatory IL-2 protein levels” value in series [2] (MSD platform, FIG. 2) is given as “increased”. For the same compound, in series [2] (q-RT-PCR, FIG. 1), the “IL22 RNA expression levels” value was “inhibited”. The “cyp1a1 RNA expression levels” value in series [2] (q-RT-PCR, FIG. 1) is given as “inhibited”. For the same compound, the Tumor growth result in series [3] (I-70 alone, orally QD 10 mg/kg for 3 weeks) is “inhibited”; in series [3] (I-70 in combination with anti-PD-1 (IP 10 mg/kg twice a week)), “inhibited”; in series [4] (I-70 alone, orally QD 10 mg/kg for 2 weeks) it was “inhibited”; in series [4] (I-70 in combination with anti-PD-1 (IP 250 μg/mouse every 3rd day)), “inhibited”.
Consider `CC(C)c1cnn2c(NCCc3c[nH]c4ccccc34)cc(-c3cncc(F)c3)nc12` [I-2, N-(2-(1H-indol-3-yl)ethyl)-5-(5-fluoropyridin-3-yl)-3-isopropylpyrazolo[1,5-a]pyrimidin-7-amine], for which, in series [1], the IC50 is < 500 nM.
Still for that read-out and setting: in the case of `Cc1cnn2c(N[C@@H]3CCc4[nH]c5ccccc5c4C3)nc(-c3cncc(F)c3)nc12` [I-201, (3R)—N-[2-(5-fluoro-3-pyridyl)-8-methyl-pyrazolo[1,5-a][1,3,5]triazin-4-yl]-2,3,4,9-tetrahydro-1H-carbazol-3-amine] it was < 500 nM.
